Test results as given in patent publication US11389415B2, “Methods of regulating cannabinoid receptor activity-related disorders and diseases” (The United States of America as represented by the …, priority 2012, dated 2022).

Test system: rat C6 glioma xenografts
Experiment: Gene expression profiling (microarray, GO term and PAGE gene set analysis) in rat C6 glioma xenografts
Type: in vivo, mouse
Details: MNF_Control
Experimental: Analysis of gene expression in rat C6 glioma xenografts. Total RNA was isolated from rat C6 glioma xenografts harvested from vehicle and MNF-treated mice (n=3 per group, cohort 1). This analysis was repeated in a second cohort of animals (n=3 per group, cohort 2). Total cellular RNA was extracted using an RNeasy plus mini kit (QIAGEN, Valencia, Calif.), and its quality was assessed using an Agilent BioAnalyzer using RNA 6000 Nano Chips (Agilent Technologies, Santa Clara, Calif.). Transcriptional profiling was determined using Illumina Sentrix BeadChips (Illumina, San Diego, Calif.). Total RNA was used to generate biotin-labeled cRNA with the Illumina TotalPrep RNA Amplification Kit. In short, 0.5 ug of total RNA was first converted into single-stranded cDNA with reverse transcriptase using an oligo-dT primer containing the T7 RNA polymerase promoter site and then copied to produce double-stranded cDNA molecules. The double-stranded cDNA was cleaned and concentrated with the supplied columns and used in an overnight in-vitro transcription reaction where single-stranded RNA (cRNA) was generated incorporating biotin-16-UTP. A total of 0.75 μg of biotin-labeled cRNA was hybridized at 58° C. for 16 hours to Illumina's Sentrix Rat Ref-12 Expression BeadChips. Each BeadChip has ˜22,000 well-annotated RefSeq transcripts with approximately 30-fold redundancy. The arrays were washed, blocked and the labeled cRNA was detected by staining with streptavidin-Cy3. Hybridized arrays were scanned using an Illumina BeadStation 500× Genetic Analysis Systems scanner and the image data extracted using Illumina's GenomeStudio software, version 1.6.1. For statistical analysis, the expression data were filtered to include only probes with a consistent signal on each chip and an Illumina detecton p value <0.02.
Correlation analysis, sample clustering analysis and principal component analysis was performed to identify/exclude any possible outliers. The resulting dataset was next analyzed with DIANE 6.0, a spreadsheet-based microarray analysis program using value statistics for Z-Score reliability below 0.05; and mean background-corrected signal intensity greater than zero.
Gene set enrichment analysis use gene expression values or gene expression change values for all of the genes in the microarray. Parametric analysis of gene set enrichment (PAGE) was used using the WEB-PAGE GSA tool for gene set analysis. Gene Sets include the MSIG database, Gene Ontology Database, GAD human disease and mouse phenotype gene sets were used to explore functional level changes. Gene-gene interaction was also analyzed using the INGENUITY® Pathway Analysis (IPA) system (INGENUITY® Systems).

COc1ccc(C[C@@H](C)NC[C@H](O)c2cc(O)cc(O)c2)c2ccccc12 [(R,R′)-MNF, (R,R′)-4′-methoxy-1-naphthylfenoterol]
Z score, ADIP_DIFF_CLUSTERS (cohort 1): −4.6054
Z score, ATRBRCAPATHWAY (cohort 1): −1.8815
Z score, BRCA_PROGNOSIS_NEG (cohort 1): −3.2974
Z score, BRENTANI_REPAIR (cohort 1): −3.8568
Z score, CANCER_UNDIFFERENTIATED_META_UP (cohort 1): −4.8288
Z score, CELL_CYCLE (cohort 1): −5.0187
Z score, CELL_CYCLE_KEGG (cohort 1): −4.1925
Z score, CMV_IE86_UP (cohort 1): −6.1497
Z score, CROONQUEST_IL6_STARVE_UP (cohort 1): −6.5055
Z score, CROONQUIST_IL6_RAS_DN (cohort 1): −6.7147
Z score, DAC_FIBRO_DN (cohort 1): −4.4476
Z score, DNA_REPLICATION_REACTOME (cohort 1): −3.8683
Z score, DOX_RESIST_GASTRIC_UP (cohort 1): −5.8557
Z score, E2F1_DNA_UP (cohort 1): −3.6781
Z score, GAY_YY1_DN (cohort 1): −7.6370
Z score, GOLDRATH_HP (cohort 1): −2.4433
Z score, HDACI_COLON_BUT12 HRS_UP (cohort 1): 5.3212
Z score, HDACI_COLON_BUT16HRS_UP (cohort 1): 3.6723
Z score, HDACI_COLON_BUT24HRS_UP (cohort 1): 3.0864
Z score, HDACI_COLON_TSABUT_UP (cohort 1): 4.1465
Z score, HIPPOCAMPUS_DEVELOPMENT_POSTNATAL (cohort 1): 3.6731
Z score, HOFFMANN_BIVSBII_BI_TABLE2 (cohort 1): −5.1273
Z score, HYPOPHYSECTOMY_RAT_DN (cohort 1): 3.6187
Z score, IDX_TSA_UP_CLUSTER3 (cohort 1): −6.1057
Z score, IRITANI_ADPROX_LYMPH (cohort 1): −5.1468
Z score, KAMMINGA_EZH2_TARGETS (cohort 1): −5.3211
Z score, KENNY_WNT_UP (cohort 1): −4.0135
Z score, LAMB_CYCLIN_D3_GLOCUS (cohort 1): −2.8637
Z score, LEE_TCELLS2_UP (cohort 1): −4.1051
Z score, LEE_TCELLS3_UP (cohort 1): −7.2409
Z score, LI_FETAL_VS_WT_KIDNEY_DN (cohort 1): −5.4447
Z score, MANALO_HYPOXIA_DN (cohort 1): −3.2723
Z score, MIDDLEAGE_DN (cohort 1): −3.6696
Z score, MOREAUX_TACI_HI_IN_PPC_UP (cohort 1): −2.9881
Z score, MOREAUX_TACI_HI_VS_LOW_DN (cohort 1): −4.3721
Z score, OLDAGE_DN (cohort 1): −4.5391
Z score, P21_P53_ANY_DN (cohort 1): −5.0275
Z score, PEART_HISTONE_DN (cohort 1): −2.5055
Z score, PODI_KO_UP (cohort 1): −3.9363
Z score, PRMT5_KD_UP (cohort 1): −9.3903
Z score, REN_E2F1_TARGETS (cohort 1): −2.9150
Z score, SASAKI_ATL_UP (cohort 1): −5.0963
Z score, SASAKI_TCELL_LYMPHOMA_VS_CD4_UP (cohort 1): −5.0963
Z score, SERUM_FIBROBLAST_CELLCYCLE (cohort 1): −7.2985
Z score, SHEPARD_BMYB_MORPHOLINO_DN (cohort 1): −4.3350
Z score, SHEPARD_CRASH_AND_BURN_MUT_VS_WT_DN (cohort 1): −3.9994
Z score, SHEPARD_GENES_COMMON_BW_CB_MO (cohort 1): −4.0300
Z score, STEMCELL_NEURAL_UP (cohort 1): −6.0983
Z score, TARTE_MATURE_PC (cohort 1): 3.6636
Z score, TARTE_PLASMA_BLASTIC (cohort 1): −4.8905
Z score, VERNELL_PRB_CLSTR1 (cohort 1): −3.4691
Z score, YU_CMYC_UP (cohort 1): −4.4689
Z score, ZHAN_MM_CD138_PR_VS_REST (cohort 1): −6.1404
Z score, ADIP_DIFF_CLUSTERS (cohort 2): −6.8850
Z score, ATRBRCAPATHWAY (cohort 2): −2.9977
Z score, BRCA_PROGNOSIS_NEG (cohort 2): −5.4682
Z score, BRENTANI_REPAIR (cohort 2): −2.9453
Z score, CANCER_UNDIFFERENTIATED_META_UP (cohort 2): −6.2847
Z score, CELL_CYCLE (cohort 2): −7.4222
Z score, CELL_CYCLE_KEGG (cohort 2): −7.0955
Z score, CMV_IE86_UP (cohort 2): −6.5954
Z score, CROONQUEST_IL6_STARVE_UP (cohort 2): −9.0059
Z score, CROONQUIST_IL6_RAS_DN (cohort 2): −7.7040
Z score, DAC_FIBRO_DN (cohort 2): −4.9523
Z score, DNA_REPLICATION_REACTOME (cohort 2): −6.5700
Z score, DOX_RESIST_GASTRIC_UP (cohort 2): −8.6145
Z score, E2F1_DNA_UP (cohort 2): −4.4885
Z score, GAY_YY1_DN (cohort 2): −4.7456
Z score, GOLDRATH_HP (cohort 2): −2.2875
Z score, HDACI_COLON_BUT12 HRS_UP (cohort 2): 3.6676
Z score, HDACI_COLON_BUT16HRS_UP (cohort 2): 3.4287
Z score, HDACI_COLON_BUT24HRS_UP (cohort 2): 3.3154
Z score, HDACI_COLON_TSABUT_UP (cohort 2): 3.4480
Z score, HIPPOCAMPUS_DEVELOPMENT_POSTNATAL (cohort 2): 10.3312
Z score, HOFFMANN_BIVSBII_BI_TABLE2 (cohort 2): −7.7114
Z score, HYPOPHYSECTOMY_RAT_DN (cohort 2): 3.9294
Z score, IDX_TSA_UP_CLUSTER3 (cohort 2): −10.1593
Z score, IRITANI_ADPROX_LYMPH (cohort 2): −3.3728
Z score, KAMMINGA_EZH2_TARGETS (cohort 2): −7.2448
Z score, KENNY_WNT_UP (cohort 2): −5.5586
Z score, LAMB_CYCLIN_D3_GLOCUS (cohort 2): −4.3054
Z score, LEE_TCELLS2_UP (cohort 2): −5.6671
Z score, LEE_TCELLS3_UP (cohort 2): −8.0339
Z score, LI_FETAL_VS_WT_KIDNEY_DN (cohort 2): −9.1715
Z score, MANALO_HYPOXIA_DN (cohort 2): −6.1956
Z score, MIDDLEAGE_DN (cohort 2): −7.7600
Z score, MOREAUX_TACI_HI_IN_PPC_UP (cohort 2): −3.8456
Z score, MOREAUX_TACI_HI_VS_LOW_DN (cohort 2): −3.2936
Z score, OLDAGE_DN (cohort 2): −7.1043
Z score, P21_P53_ANY_DN (cohort 2): −7.4300
Z score, PEART_HISTONE_DN (cohort 2): −5.2170
Z score, PODI_KO_UP (cohort 2): −4.3565
Z score, PRMT5_KD_UP (cohort 2): −5.4620
Z score, REN_E2F1_TARGETS (cohort 2): −3.5319
Z score, SASAKI_ATL_UP (cohort 2): −5.5299
Z score, SASAKI_TCELL_LYMPHOMA_VS_CD4_UP (cohort 2): −5.5299
Z score, SERUM_FIBROBLAST_CELLCYCLE (cohort 2): −10.6997
Z score, SHEPARD_BMYB_MORPHOLINO_DN (cohort 2): −4.7947
Z score, SHEPARD_CRASH_AND_BURN_MUT_VS_WT_DN (cohort 2): −4.0540
